We go through 18 compounds from ChEMBL document CHEMBL4390641, “Design, synthesis and biological evaluation of amide-pyridine derivatives as novel dual-target (SE, CYP51) antifungal inhibitors” (2019).

Active and inactive are the calls of the source. The calls are words filed in the database; no cut-off is given here. Bounds are passed on as bounds.

For assay [1], the system named is Aspergillus fumigatus. Description: Antifungal activity against Aspergillus fumigatus KM8001 assessed as inhibition of microbial growth by NCCLS protocol based method. The class given is functional.
The subject of assay [2] is Pichia kudriavzevii. As to the kind of experiment: Antifungal activity against Candida krusei ATCC 6258 assessed as inhibition of microbial growth by NCCLS protocol based method. It counts as functional.
For assay [3], the system named is Candida albicans. As to the kind of experiment: Antifungal activity against Candida albicans ATCC 10231 assessed as inhibition of microbial growth by NCCLS protocol based method. The class given is functional.
For assay [4], the system named is Candida tropicalis. Description: Antifungal activity against Candida tropicalis ATCC 1369 assessed as inhibition of microbial growth by NCCLS protocol based method. It counts as functional.
Assay [5] relates to Nakaseomyces glabratus. As to the kind of experiment: Antifungal activity against Candida glabrata ATCC 0001 assessed as inhibition of microbial growth by NCCLS protocol based method. It counts as functional.
In assay [6] the test system is Candida albicans. As to the kind of experiment: Antifungal activity against Candida albicans assessed as inhibition of microbial growth at 2.5 nM/mL by polarizing microscopy. It counts as functional, organism-based.
Assay [7] concerns Candida albicans. Description: Antifungal activity against Candida albicans assessed as reduction in cell division at 25 to 250 nM/mL by polarizing microscopy. It counts as functional, organism-based.
In assay [8] the test system is Candida albicans. As to the kind of experiment: Antifungal activity against fluconazole-resistant Candida albicans 103 assessed as inhibition of microbial growth by NCCLS protocol based method. The class given is functional.
The test system of assay [9] is Candida albicans. As to the kind of experiment: Antifungal activity against Candida albicans assessed as reduction in cell volume at 25 to 250 nM/mL by polarizing microscopy. It counts as functional, organism-based.
For assay [10], the system named is Candida albicans. Description: Antifungal activity against fluconazole-resistant Candida albicans 100 assessed as inhibition of microbial growth by NCCLS protocol based method. The class given is functional.
Assay [11] concerns Candida albicans. As to the kind of experiment: Antifungal activity against Candida albicans assessed as induction of cell fracture at 2.5 nM/mL by polarizing microscopy. It counts as functional, organism-based.
The test system of assay [12] is Candida albicans. As to the kind of experiment: Antifungal activity against Candida albicans assessed as inhibition of microbial growth at 25 to 250 nM/mL by polarizing microscopy. The class given is functional, organism-based.
The test system of assay [13] is Candida albicans. Description: Antifungal activity against Candida albicans assessed as reduction in proportion of microbes at cell division phase at 25 to 250 nM/mL by polarizing microscopy. It counts as functional, organism-based.
Assay [14] deals with Candida albicans. Description: Antifungal activity against Candida albicans assessed as induction of microbial cell killing at 25 to 250 nM/mL by polarizing microscopy. The class given is functional, organism-based.
Assay [15] deals with Candida albicans. As to the kind of experiment: Inhibition of SE/CYP51 in Candida albicans ATCC SC5314 assessed as effect on sterol composition by measuring Lanosterol level at 16 ug/ml incubated for 90 mins by HPLC analysis (reference value: 10.99%). Also noted: scale not given: the % may be the effect or the level left.
Assay [16] concerns Heme. As to the kind of experiment: Binding affinity to heme by UV-Visible spectroscopy.
Assay [17] has as its system Candida albicans. As to the kind of experiment: Inhibition of SE/CYP51 in Candida albicans ATCC SC5314 assessed as effect on sterol composition by measuring Squalene level at 16 ug/ml incubated for 90 mins by HPLC analysis. Further details: scale not given: the % may be the effect or the level left.
For assay [18], the system named is Heme. As to the kind of experiment: Binding affinity to heme by fluorescence spectrum analysis.
In assay [19] the test system is Candida albicans. Description: Inhibition of SE/CYP51 in Candida albicans ATCC SC5314 assessed as effect on sterol composition by measuring ergosterol level at 16 ug/ml incubated for 90 mins by HPLC analysis (reference value: 64.2%). Also noted: scale not given: the % may be the effect or the level left.
The test system of assay [20] is Candida albicans. As to the kind of experiment: Inhibition of SE/CYP51 in Candida albicans ATCC SC5314 assessed as effect on sterol composition by measuring Eburicol level at 16 ug/ml incubated for 90 mins by HPLC analysis (reference value: 8.3%). Further details: scale not given: the % may be the effect or the level left.
For assay [21], the system named is Candida albicans. As to the kind of experiment: Inhibition of SE/CYP51 in Candida albicans ATCC SC5314 assessed as effect on sterol composition by measuring Unidentified sterol level at 16 ug/ml incubated for 90 mins by HPLC analysis (reference value: 16.51%). Also noted: scale not given: the % may be the effect or the level left.

In general, MIC refers to the least concentration at which growth counts as inhibited.

In the case of `O=C(CNC(=O)c1ccc2ccccc2n1)NCc1cccnc1`, the MIC was determined as 2 µg/mL in [1]; 0.5 µg/mL in assay [2]; 0.5 µg/mL in assay [3]; 1 µg/mL in assay [4]; 2 µg/mL in [5].

`O=C(CNC(=O)c1ccc2ccccc2n1)NCc1ccncc1`: the “growth inhibition (GI)” value in [6] and in assay [12] was “Active” each time. Further, the result in [7], in assay [9], in assay [11], in assay [13] and in assay [14] was Active. Moreover, the MIC in assay [1] stood at 2 µg/mL; in assay [8], 1 µg/mL; in assay [10] it was 2 µg/mL; in assay [2], 0.5 µg/mL; in assay [3], 0.25 µg/mL; in assay [4] it was 0.125 µg/mL. Further, the MIC in [5] turned out to be 0.5 µg/mL.

Turning to `O=C(N[C@H](C(=O)NCc1cccnc1)c1ccccc1)c1ccc2ccccc2n1`, the MIC was above 16 µg/mL in assay [1]; above 16 µg/mL in assay [2]; 8 µg/mL in [3]; 2 µg/mL in assay [4]; 4 µg/mL in assay [5].

Turning to `O=C(CNC(=O)c1ccc2ccccc2c1)NCc1ccncc1`, the MIC worked out at 2 µg/mL in assay [1]; 1 µg/mL in assay [2]; 0.25 µg/mL in [3]; 0.5 µg/mL in assay [4]; 0.25 µg/mL in [5].

For `CC(C)[C@H](NC(=O)c1ccc2ccccc2n1)C(=O)NCc1cccnc1`, the minimum inhibitory concentration (MIC) in assay [1] was determined as 4 µg/mL; in assay [2], 1 µg/mL; in assay [3] it was 0.5 µg/mL; in assay [4], 2 µg/mL; in [5], 0.5 µg/mL.

Regarding `C[C@H](NC(=O)c1ccc2ccccc2n1)C(=O)NCc1cccnc1`, the MIC stood at 8 µg/mL in [1]; 2 µg/mL in [2]; 1 µg/mL in assay [3]; 0.5 µg/mL in [4]; 0.25 µg/mL in [5].

On to `O=C(CNC(=O)c1ccc2ccccc2c1)NCc1cccnc1`, for which the MIC in assay [1] is above 16 µg/mL; in assay [2], 2 µg/mL; in assay [3], 1 µg/mL; in assay [4], 0.5 µg/mL; in [5] it was 4 µg/mL.

`C[C@H](NC(=O)c1ccc2ccccc2c1)C(=O)NCc1cccnc1`: the MIC in assay [1] came to 4 µg/mL; in assay [2], 0.5 µg/mL; in [3] it was 0.5 µg/mL; in [4], 2 µg/mL; in assay [5], 1 µg/mL.

`C[C@H](NC(=O)c1ccc2ccccc2n1)C(=O)NCc1ccncc1`: the “growth inhibition (GI)” value in [6] and in assay [12] was “Active” throughout. Also, the Activity in assay [15] was 50.1%; in [17], 13.4%; in assay [18] it was “Dose-dependent effect”; in assay [19], 9.02%; in assay [20], 27.4%. Moreover, the result in assay [7], in assay [16], in assay [9], in assay [11], in assay [13] and in assay [14] was Active. The MIC in assay [1] worked out at 1 µg/mL; in assay [8], 2 µg/mL; in assay [10], 0.5 µg/mL; in [2] it was 0.25 µg/mL; in assay [3] it was 0.125 µg/mL; in [4], 0.25 µg/mL. In addition, the MIC in [5] was determined as 0.125 µg/mL.

For the compound `O=C(N[C@H](C(=O)NCc1ccncc1)c1ccccc1)c1ccc2ccccc2n1`, the MIC was above 16 µg/mL in assay [1]; 4 µg/mL in [2]; 2 µg/mL in assay [3]; above 16 µg/mL in assay [4]; above 16 µg/mL in assay [5].

Consider `CC(C)[C@H](NC(=O)c1ccc2ccccc2c1)C(=O)NCc1cccnc1`, for which the MIC in [1] was above 16 µg/mL; in assay [2] it was 4 µg/mL; in assay [3], 8 µg/mL; in [4], 2 µg/mL; in assay [5], 2 µg/mL.

On to `O=C(N[C@H](C(=O)NCc1ccncc1)c1ccccc1)c1ccc2ccccc2c1`, for which the MIC in assay [1] was above 16 µg/mL; in [2], 4 µg/mL; in [3], 4 µg/mL; in [4], above 16 µg/mL; in assay [5], 8 µg/mL.

`CC(C)[C@H](NC(=O)c1ccc2ccccc2c1)C(=O)NCc1ccncc1`: the MIC in [1] was found to be 8 µg/mL; in assay [2], 0.5 µg/mL; in [3], 2 µg/mL; in assay [4], 2 µg/mL; in assay [5], 0.5 µg/mL.

For `CC(C)[C@H](NC(=O)c1ccc2ccccc2n1)C(=O)NCc1ccncc1`, the minimal inhibitory concentration (MIC) was above 16 µg/mL in [1]; 0.5 µg/mL in assay [2]; 0.5 µg/mL in [3]; 4 µg/mL in assay [4]; 2 µg/mL in assay [5].

On to `CN(C/C=C/C#CC(C)(C)C)Cc1cccc2ccccc12` [TERBINAFINE], for which the “growth inhibition (GI)” value in [6] was “inactive”. In addition, the Activity was 22.4% in [15]; 7.27% in [21]; 37.8% in assay [17]; 10.6% in assay [19]; 21.9% in [20]. Also, the result in assay [7], in assay [9], in assay [13] and in [14] was Active. In addition, the MIC in assay [1] came to 2 µg/mL; in assay [8] it was 4 µg/mL; in [10] it was 8 µg/mL; in assay [2], 0.5 µg/mL; in [3], 0.25 µg/mL; in assay [4] it was 2 µg/mL. For the same compound, the minimum inhibitory concentration (MIC) in assay [5] was determined as 1 µg/mL. For the same compound, the “growth inhibition (GI)” value in assay [12] is “Active”.

On to `C[C@H](NC(=O)c1ccc2ccccc2c1)C(=O)NCc1ccncc1`, for which the MIC in assay [1] came out at 2 µg/mL; in assay [2], 0.5 µg/mL; in assay [3] it was 0.25 µg/mL; in assay [4], 0.25 µg/mL; in [5], 1 µg/mL.

As to `O=C(N[C@H](C(=O)NCc1cccnc1)c1ccccc1)c1ccc2ccccc2c1`, the MIC is above 16 µg/mL in assay [1]; 8 µg/mL in assay [2]; above 16 µg/mL in assay [3]; 8 µg/mL in assay [4]; above 16 µg/mL in [5].

As to `OC(Cn1cncn1)(Cn1cncn1)c1ccc(F)cc1F` [FLUCONAZOLE], the “growth inhibition (GI)” value in assay [6] was “inactive”. Further, the Activity in [15] turned out to be 49.2%; in [19] it was 11.3%; in assay [20], 39.5%. For the same compound, the result in assay [7], in assay [16], in assay [9], in assay [13] and in assay [14] was Active. The MIC in [1] is above 16 µg/mL; in [8], above 16 µg/mL; in [10], above 16 µg/mL; in assay [2], 0.5 µg/mL; in [3], 0.5 µg/mL; in assay [4], 2 µg/mL. The minimum inhibitory concentration (MIC) in assay [5] is 1 µg/mL. For the same compound, in assay [12], the “growth inhibition (GI)” value was “Active”.
